Data taken from PubChem BioAssay (NCI).
Where “and” joins values, the source holds several entries; their conditions need not be identical. Equal values may be shown once.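 A five-concentration, 48-hour dose response in 96-well plates underlies each endpoint, interpolated linearly between surrounding concentrations. Here, GI50 denotes the concentration required for 50% inhibition of growth. TGI marks complete inhibition of growth.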

Assays:
Experiment in all cases: NCI anticancer screen, dose series, 48 h
[1] = test system: MDA-MB-231 breast
[2] = test system: T-47D breast
[3] = test system: NCI/ADR-RES ovarian
[4] = test system: KM12 colon
[5] = test system: SW-620 colon
[6] = test system: IGROV1 ovarian
[7] = test system: A549 NSCLC
[8] = test system: HCC-2998 colon
[9] = test system: HL-60(TB) leukemia
[10] = test system: PC-3 prostate

SMILES | GI50 [1] | TGI [1] [µM] | GI50 [2] [µM] | TGI [2] [µM] | GI50 [3] | TGI [3] [µM] | GI50 [4] | TGI [4] [µM] | GI50 [5] | TGI [5] [µM] | GI50 [6] | TGI [6] [µM] | GI50 [7] | TGI [7] [µM] | GI50 [8] | TGI [8] [µM] | GI50 [9] | TGI [9] | GI50 [10] | TGI [10] [µM]
O=c1c2c(nc3n1CCS3)[nH]c1cc([N+](=O)[O-])ccc12 | > 100 µM | > 100 | 45 | > 100 | > 100 µM | > 100 | > 100 µM | > 100 | > 100 µM | > 100 | 36.2 µM | > 100 | > 100 µM | > 100 | > 100 µM | > 100 | 20.1 µM | > 100 µM | > 100 µM | > 100
CC(C)C[C@H](NC(=O)CNC(=O)c1cc(Cl)ccc1Cl)B(O)O | 0.0302 µM | 0.14 | < 0.0156 | 0.0602 | 0.183 µM | > 100 | 0.0295 µM | 0.101 | < 0.0173 µM | – | 0.0498 µM | 0.283 | 0.046 µM | 7.6 | 0.0199 µM | 0.0436 | < 0.0167 µM | 0.212 µM | 0.0486 µM | 0.841
C/C=C(\C)c1cc(=O)c2c(C)cc3c(c2o1)C(=O)c1c(O)c(C2CC(C)(N(C)C)C(OC(C)=O)C(C)O2)cc(C2CC(N(C)C)C(O)C(C)O2)c1C3=O (stereo not drawn) | – | 5.96 | – | 38.2 | – | 9.16 | – | 6.49 | – | > 27.7 | – | 6.01 | – | > 50 | – | 2.32 | – | > 50 µM | – | 7.83
COc1cc(/C=C/c2cc(/C=C/c3ccc(O)c(OC)c3)n(C(=O)c3ccc(Cl)cc3)n2)ccc1O | 2.84 µM | 19.6 | 1.92 | 5.86 | 2.9 µM | 18 | 1.24 µM | 14.4 | 3.12 µM | 13.8 | 3.17 µM | 15.4 | 3.3 µM | 12.8 | 3.94 µM | 12.8 | 1.58 µM | 7.62 µM | 2.66 µM | 15.5
CN[C@H]1CN(c2ccc3c(=O)c(C(=O)O)cn(-c4nccs4)c3n2)C[C@@H]1OC | 1.52 µM | 6.92 | 1.23 | 7.76 | 1.3 µM | 7.56 | 1.37 µM | 13.9 | 0.633 µM | 3.54 | 0.353 µM | 7.15 | 0.511 µM | 2.76 | 0.856 µM | 3.58 | 0.292 µM | 2.07 µM | 1.65 µM | 19.4
Oc1ccc(C=Nc2ccccc2O)cc1 | – | > 100 | – | > 100 | – | > 100 | – | > 100 | – | > 100 | – | > 100 | – | > 100 | – | > 100 | – | 42.1 µM | – | > 100
COc1ccccc1Nc1cc(O)c2c(=O)cc(-c3ccccc3)oc2c1 | 3.96 µM | 18.4 | 4.36 | > 100 | 1.99 µM | 18 | 2.76 µM | 55.2 | 2.5 µM | > 100 | 2.98 µM | 18.5 | 5.16 µM | > 100 | 6.07 µM | > 100 | 2.79 µM | 34.9 µM | 5.13 µM | 41.6
CC[C@H](C)[C@H](NC(=O)[C@H]1CCCCN1C)C(=O)N(C)[C@H](C[C@@H](OC(C)=O)c1cccc(C(=O)N[C@@H](Cc2ccccc2)C[C@H](C)C(=O)OC)n1)C(C)C | 0.00427 µM and 0.00267 µM | 0.85 | 0.000953 | – | 0.175 µM and 0.276 µM | > 25 | 0.00188 µM and 0.0025 µM | > 25 | 0.00317 µM and 0.0025 µM | > 25 | 0.000812 µM and 0.00506 µM | > 25 | 0.0377 µM and 0.00974 µM | > 25 | 0.00362 µM and 0.0025 µM | > 25 | 0.0017 µM and < 0.0025 µM | 0.00655 µM and < 0.0025 µM | 0.0032 µM and 0.0025 µM | > 25
